# How the values were obtained:
# serum albumin = molecular target: T1, serum albumin (Homo sapiens, UniProt P02768); assay: EPR spectroscopy of spin probe binding to primary and secondary binding sites of serum albumin in patient serum
# T1 construct: from tissue; host or cells: blood serum of patients (whole blood centrifugation)
# Description: At the condition of binding equilibrium in the mixture of sample aliquot, probe, and solvent, the binding efficiencies (BE1 and BE2) of specific (primary) and non-specific (secondary) hydrophobic binding sites of serum albumin can be calculated using the concentrations of the probe bound on the primary site of albumin (B1), on the secondary albumin site (B2) and unbound probe concentration (F), and solvent concentration (S) in the mixture. For example, can be calculated with either: 1/BE1=1/(Kb1·N1)=(Sc/S−1)·(F/B1)·P·(1−B1/(P·N1)) (2) 1/BE2=1/(Kb2·N2)=(Sc/S−1)·(F/B2)·P·(1−B2/(P·N2)) (3) where Sc=0.27 volume percent is the critical concentration of the solvent (as described above), P is the concentration of serum albumin in the sample, N1 is the number of specific or primary binding sites for the probe on the serum albumin molecule, N2 is the number of non-specific or secondary binding sites for the probe between the albumin on the serum albumin molecule. Generally, where the probe is a long chain fatty acid, N1=7 and N2 is from 6 to 8 for purified albumin. For native serum albumin of a healthy person N1 is from 4 to 7, and N2 is from 3 to 7. In native serum samples, typically the relative concentration of the spin probe bound on primary site, parameter B1/P, is about 0.5; and parameter B2/P is about 0.4. Therefore, the binding efficiencies BE1 and BE2 can be calculated (within about 10%) using the approximate formulas: 1/BE1=(Sc/S−1)·(F/B1)·P (2a) 1/BE2=(Sc/S−1)·(F/B2)·P (3a)
# In Table 2, B1 and B2 are relative concentrations of the probe bound on primary and secondary sites of albumin, F is the relative concentration of unbound probe, B1/F and B2/F are parameters representing the binding efficiency of the primary and secondary binding sites of albumin, DP is discriminating parameter designed by square discriminant analysis using a set of probe binding parameters.
# Blood serum was obtained by whole blood centrifugation. An aliquot of 50 μl of serum from each patient was used for each test. A spin probe of 2-(14-carboxytetradecyl)-2-ethyl-4,4-dimethyl-3-oxazolidinyloxy (purchased from Fluorochem Ltd., Derbyshire, UK) was mixed into the aliquot at a concentration of 1.64 mmol/l. A solvent, 14 μl of ethanol, was mixed into the aliquot. The molar ratio of the probe to serum albumin in the aliquot was 3.5, based on an albumin concentration in the serum of 4 g/dL. The mixture was then incubated for 10 min at 37° C. with continuous agitation in a standard shaker operated at about 5-8 Hz.
# After incubation, the probe was placed into a glass capillary (e.g., Model No. RM-40, available from KABE LABORTECHNIK GmbH, Numbrecht-Elsenroth, Germany).
# The EPR spectrum of the mixture was then measured, as described below. The above-described capillary was placed into the resonator of an EPR spectrometer for spectroscopic analysis. The spectroscopy parameters were as follows: microwave power 15 mW at frequency 9.52 GHz; magnetic field 0.34 T (3400 G) with scan range 12 mT (120 G); modulation amplitude 0.2 mT (2 G); data accumulation by three scans each with 4096 measured points and a sweep time 60 s. The capillary temperature was 37° C., and was controlled within +/−0.2° C.
# The EPR spectrum was analyzed by computer using an EPR-spectrum simulation with nonlinear least-squares fits. The spectrum model included five components. The first two are the B and C components which represent portions of the probe that were bound differently on serum albumin. As shown here, the B and C components primarily differed by spectral parameters of A tensors (hyperfine splitting tensor): A∥(B)=30.02 Oe, A⊥(B)=9.02 Oe, A∥(C)=21.5 Oe, and A⊥(C)=13.35 Oe. Parameters of the g tensor used in the spectral calculations of these two components were: g∥(B)=1.9983, g⊥(B)=2.0019, g∥(C)=1.9990, and g⊥(C)=2.0013. The third D component represented the unbound spin probe residing free in the sample. The parameters of the D component were: A∥(D)=A⊥(D)=15.6 Oe, and g∥(D)=g⊥(D)=2.0008. […]
# albumin = albumin (Homo sapiens, UniProt P02768); conditions: affinity of albumin for unlabeled stearic acid; cited from earlier work
# Chain of albumin (P02768 25-609, species assumed): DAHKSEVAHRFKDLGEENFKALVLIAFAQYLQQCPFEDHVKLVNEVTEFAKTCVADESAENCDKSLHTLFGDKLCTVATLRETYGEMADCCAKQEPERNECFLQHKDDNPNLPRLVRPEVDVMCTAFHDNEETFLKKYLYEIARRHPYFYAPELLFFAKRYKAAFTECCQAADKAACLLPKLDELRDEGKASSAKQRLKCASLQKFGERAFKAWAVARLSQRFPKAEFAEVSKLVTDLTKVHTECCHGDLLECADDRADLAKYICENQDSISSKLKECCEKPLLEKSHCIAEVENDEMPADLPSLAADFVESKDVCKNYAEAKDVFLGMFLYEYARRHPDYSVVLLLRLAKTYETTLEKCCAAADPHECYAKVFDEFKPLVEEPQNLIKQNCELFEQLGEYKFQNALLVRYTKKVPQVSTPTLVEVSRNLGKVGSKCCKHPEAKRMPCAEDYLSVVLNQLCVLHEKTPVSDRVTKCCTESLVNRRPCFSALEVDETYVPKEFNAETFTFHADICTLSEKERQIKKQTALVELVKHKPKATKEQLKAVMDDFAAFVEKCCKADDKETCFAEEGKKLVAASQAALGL
# [1] = cancer-free persons, Mean, serum albumin 0.47 mmol, spin probe 1.64 mmol, ethanol 0.22 volume percent
# [2] = patients with active malignancies, Max
# [3] = patients with active malignancies, Mean
# [4] = patients with active malignancies, Mean, serum albumin 0.47 mmol, spin probe 1.64 mmol, ethanol 0.22 volume percent
# [5] = patients with active malignancies, Min
# T1 sequence (P02768 25-609): as the sequence (P02768 25-609, species assumed) above
structure (smiles),measurement,setting,value
"CCC1(CCCCCCCCCCCCCCC(=O)O)OCC(C)(C)N1[O] (stereo not shown) [16-doxyl stearic acid, 2-(14-carboxytetradecyl)-2-ethyl-4,4-dimethyl-3-oxazolidinyloxy]","B1, relative concentration of probe bound on primary sites of albumin","serum albumin; cancer-free persons, Max",0.60
same,"B1/F, binding efficiency of primary binding sites of albumin","serum albumin; cancer-free persons, Max",54.4
same,"B2, relative concentration of probe bound on secondary sites of albumin","serum albumin; cancer-free persons, Max",0.45
same,"B2/F, binding efficiency of secondary binding sites of albumin","serum albumin; cancer-free persons, Max",37.5
same,"DP, discriminating parameter","serum albumin; cancer-free persons, Max",−0.3
same,"F, relative concentration of unbound probe","serum albumin; cancer-free persons, Max",0.044
same,"B1/F, binding efficiency of primary binding sites of albumin","serum albumin; cancer-free persons, Mean",21.8
same,"B2/F, binding efficiency of secondary binding sites of albumin","serum albumin; cancer-free persons, Mean",15.8
same,"DP, discriminating parameter","serum albumin; cancer-free persons, Mean",−3.3
same,"B1, relative concentration of probe bound on primary sites of albumin",serum albumin; [1],0.52
same,"B2, relative concentration of probe bound on secondary sites of albumin",serum albumin; [1],0.38
same,"F, relative concentration of unbound probe",serum albumin; [1],0.026
same,"B1, relative concentration of probe bound on primary sites of albumin","serum albumin; cancer-free persons, Min",0.40
same,"B1/F, binding efficiency of primary binding sites of albumin","serum albumin; cancer-free persons, Min",10.4
same,"B2, relative concentration of probe bound on secondary sites of albumin","serum albumin; cancer-free persons, Min",0.34
same,"B2/F, binding efficiency of secondary binding sites of albumin","serum albumin; cancer-free persons, Min",8.5
same,"DP, discriminating parameter","serum albumin; cancer-free persons, Min",−5.2
same,"F, relative concentration of unbound probe","serum albumin; cancer-free persons, Min",0.010
same,"B1, relative concentration of probe bound on primary sites of albumin",serum albumin; [2],0.54
same,"B1/F, binding efficiency of primary binding sites of albumin",serum albumin; [2],11.4
same,"B2, relative concentration of probe bound on secondary sites of albumin",serum albumin; [2],0.38
same,"B2/F, binding efficiency of secondary binding sites of albumin",serum albumin; [2],6.5
same,"DP, discriminating parameter",serum albumin; [2],66.0
same,"F, relative concentration of unbound probe",serum albumin; [2],0.155
same,"B1/F, binding efficiency of primary binding sites of albumin",serum albumin; [3],5.9
same,"B2/F, binding efficiency of secondary binding sites of albumin",serum albumin; [3],4.5
same,"DP, discriminating parameter",serum albumin; [3],8.0
same,"B1, relative concentration of probe bound on primary sites of albumin",serum albumin; [4],0.44
same,"B2, relative concentration of probe bound on secondary sites of albumin",serum albumin; [4],0.33
same,"F, relative concentration of unbound probe",serum albumin; [4],0.079
same,"B1, relative concentration of probe bound on primary sites of albumin",serum albumin; [5],0.32
same,"B1/F, binding efficiency of primary binding sites of albumin",serum albumin; [5],2.3
same,"B2, relative concentration of probe bound on secondary sites of albumin",serum albumin; [5],0.23
same,"B2/F, binding efficiency of secondary binding sites of albumin",serum albumin; [5],1.6
same,"DP, discriminating parameter",serum albumin; [5],0.1
same,"F, relative concentration of unbound probe",serum albumin; [5],0.047
CCCCCCCCCCCCCCCCCC(=O)O [stearic acid],binding constant,albumin,about 10^9 mol^−1
